According to US20230277534A1 (Plexxikon Inc., priority 2011, published 2023):

How the values were obtained:
[1] = biological target: B-Raf V600E (Homo sapiens (Human), UniProt P15056, V600E); test: B-Raf V600E kinase biochemical activity assay (AlphaScreen, biotin-MEK1 substrate); settings: 100 μM ATP
Method in brief: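 IC50 was derived from AlphaScreen signal (anti-phospho-MEK1/2 antibody with streptavidin donor and Protein A acceptor beads, 3 h) across 8 compound concentrations. The kinase step ran 45 min at room temperature: 0.1 ng B-Raf V600E, 100 nM biotin-MEK1, 100 μM final ATP, pH 7.0 HEPES with MgCl2/MnCl2.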

[2] = tested on: IPC-298 human melanoma cell line that expresses activated NRAS; test: IPC-298_P-ERK cell activation assay (phosphorylated ERK, AlphaScreen); format: cell-based; settings: 1 h, IPC-298 cells, P-ERK activation, compound for one hour
Experimental: B9 is a squamous cell carcinoma cell line expressing activated HRAS that was isolated from a DMBA/TPA-induced mouse model of skin carcinogenesis (Stoler, et al. The Journal of Cell Biology, 1993, 122(5), 1103-17). IPC-298 is a human melanoma cell line that expresses activated NRAS (Aubert, et al. International Journal of Cancer, 1993, 54(5), 784-92). To determine whether compounds induce phosphorylated ERK and MEK, cells are plated in a 96-well dish and treated with an 8-point titration of compound for one hour at 37° C. The media is then removed and the cells are incubated with lysis buffer containing protease and phosphatase inhibitors. Phosphorylated ERK and MEK in the resulting lysates is detected using AlphaScreen™ technology. To detect phosphorylated ERK, cell lysates are incubated with streptavidin-coated donor beads, anti-mouse IgG acceptor beads, a biotinylated anti-ERK1/2 rabbit antibody, and a mouse antibody that recognizes ERK1/2 only when it is phosphorylated on Thr202 and Tyr204. The biotinylated ERK1/2 antibody will bind to both the streptavidin-coated donor beads and to ERK1/2 (regardless of its phosphorylation state), and the phospho-ERK1/2 antibody will bind to the acceptor beads and to ERK1/2 that is phosphorylated at Thr202/Tyr204. Excitation of the beads with laser light at 680 nm produces singlet oxygen, which is rapidly quenched unless the beads are in close proximity. When ERK is phosphorylated, both antibodies can bind the same protein, bringing the donor and acceptor beads into close proximity, producing a signal that can be measured at 580 nm. MEK phosphorylation is detected using a similar approach, only with antibodies directed against total MEK1/2 and MEK1/2 that is phosphorylated at Ser217 and Ser221.

[3] = tested on: COLO205 colon adenocarcinoma cells (B-Raf V600E mutation); test: COLO205 cell growth inhibition (ATPlite); format: cell-based; settings: Homo sapiens, COLO 205, 72 h, 3 days
Method in brief: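 Cells treated for 3 days at 37 °C, 5% CO2 with an 8-point 1:3 dilution series, top final concentration 10 μM, DMSO control. ATPlite luminescence used as a measure of cell number; IC50 from reading versus concentration.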

Sequence of B-Raf V600E (P15056 whole entry V600E): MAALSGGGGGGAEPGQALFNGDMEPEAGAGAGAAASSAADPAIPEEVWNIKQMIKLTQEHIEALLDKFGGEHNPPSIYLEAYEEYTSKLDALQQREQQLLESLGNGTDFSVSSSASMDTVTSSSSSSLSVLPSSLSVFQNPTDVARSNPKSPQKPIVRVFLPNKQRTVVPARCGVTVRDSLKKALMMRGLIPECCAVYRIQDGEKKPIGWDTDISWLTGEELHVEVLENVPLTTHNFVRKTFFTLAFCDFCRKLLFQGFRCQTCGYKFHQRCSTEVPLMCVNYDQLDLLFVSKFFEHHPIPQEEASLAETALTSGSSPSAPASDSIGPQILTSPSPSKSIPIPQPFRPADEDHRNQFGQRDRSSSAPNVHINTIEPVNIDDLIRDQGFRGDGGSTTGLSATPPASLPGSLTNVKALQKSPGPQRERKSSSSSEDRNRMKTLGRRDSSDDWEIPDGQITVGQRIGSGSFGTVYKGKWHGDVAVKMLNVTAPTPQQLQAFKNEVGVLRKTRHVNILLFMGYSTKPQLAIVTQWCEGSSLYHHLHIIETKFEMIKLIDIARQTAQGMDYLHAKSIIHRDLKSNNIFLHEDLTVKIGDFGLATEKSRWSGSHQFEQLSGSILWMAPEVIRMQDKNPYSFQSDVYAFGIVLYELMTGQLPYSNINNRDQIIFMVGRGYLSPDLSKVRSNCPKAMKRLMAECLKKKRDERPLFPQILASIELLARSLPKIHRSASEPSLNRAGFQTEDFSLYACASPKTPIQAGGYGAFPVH

Structure (SMILES)	IC50 [1]	EC50 [2]	IC50 [3]
CCN(C)S(=O)(=O)Nc1ccc(F)c(C(=O)c2c[nH]c3ncc(Cl)cc23)c1F [Compound P-0012, 5-chloro-3-[3-[[ethyl(methyl)sulfamoyl]amino]-2,6-difluoro-benzoyl]-1H-pyrrolo[2,3-b]pyridine]	< 0.1 µM	> 10 µM	> 1 µM
CCN(C)S(=O)(=O)Nc1ccc(F)c(C(=O)c2c[nH]c3ncc(C#N)cc23)c1F [Compound P-0017, 5-cyano-3-[3-[[ethyl(methyl)sulfamoyl]amino]-2,6-difluoro-benzoyl]-1H-pyrrolo[2,3-b]pyridine]	< 0.1 µM	> 10 µM	> 1 µM
CCN(C)S(=O)(=O)Nc1cccc(C(=O)c2c[nH]c3ncc(Cl)cc23)c1F [Compound P-0018, 5-chloro-3-[3-[[ethyl(methyl)sulfamoyl]amino]-2-fluoro-benzoyl]-1H-pyrrolo[2,3-b]pyridine]	< 0.1 µM	> 10 µM	> 1 µM
Cc1cnc2[nH]cc(C(=O)c3cccc(NS(=O)(=O)N4CCCC4)c3F)c2c1 [Compound P-0023, N-[2-fluoro-3-(5-methyl-1H-pyrrolo[2,3-b]pyridine-3-carbonyl)phenyl]pyrrolidine-1-sulfonamide]	< 0.1 µM	> 10 µM	> 1 µM
CCN(C)S(=O)(=O)Nc1cccc(C(=O)c2c[nH]c3ncc(-c4ccc(F)cc4)cc23)c1F [Compound P-0034]		> 10 µM	> 1 µM
CN(C)S(=O)(=O)Nc1cccc(C(=O)c2c[nH]c3ncc(-c4ccc(F)cc4)cc23)c1F [Compound P-0035]		> 10 µM	> 1 µM
CCN(C)S(=O)(=O)Nc1cccc(C(=O)c2c[nH]c3ncc(Br)cc23)c1F [Compound P-0038, 5-bromo-3-[3-[[ethyl(methyl)sulfamoyl]amino]-2-fluoro-benzoyl]-1H-pyrrolo[2,3-b]pyridine]	< 0.1 µM	> 10 µM	> 1 µM
CCN(C)S(=O)(=O)Nc1cccc(C(=O)c2c[nH]c3ncc(C#N)cc23)c1F [Compound P-0039, 5-cyano-3-[3-[[ethyl(methyl)sulfamoyl]amino]-2-fluoro-benzoyl]-1H-pyrrolo[2,3-b]pyridine]		> 10 µM	> 1 µM
CCCN(C)S(=O)(=O)Nc1cccc(C(=O)c2c[nH]c3ncc(-c4cnc(OC)nc4)cc23)c1F [Compound P-0040, 3-[2-fluoro-3-[[methyl(propyl)sulfamoyl]amino]benzoyl]-5-(2-methoxypyrimidin-5-yl)-1H-pyrrolo[2,3-b]pyridine]	< 0.1 µM	> 10 µM	< 1 µM
Cn1cc(-c2cnc3[nH]cc(C(=O)c4cccc(NS(=O)(=O)CC5CC5)c4F)c3c2)cn1 [Compound P-0042, 1-cyclopropyl-N-[2-fluoro-3-[5-(1-methylpyrazol-4-yl)-1H-pyrrolo[2,3-b]pyridine-3-carbonyl]phenyl]methanesulfonamide]		> 10 µM	< 1 µM
O=C(c1cccc(NS(=O)(=O)N2CCCC2)c1F)c1c[nH]c2ncc(-c3cccnc3)cc12 [Compound P-0043, N-[2-fluoro-3-[5-(3-pyridyl)-1H-pyrrolo[2,3-b]pyridine-3-carbonyl]phenyl]pyrrolidine-1-sulfonamide]	< 0.1 µM	> 10 µM	< 1 µM
COc1ncc(-c2cnc3[nH]cc(C(=O)c4cccc(NS(=O)(=O)N5CCCC5)c4F)c3c2)c(OC)n1 [Compound P-0044, N-[3-[5-(2,4-dimethoxypyrimidin-5-yl)-1H-pyrrolo[2,3-b]pyridine-3-carbonyl]-2-fluoro-phenyl]pyrrolidine-1-sulfonamide]		> 10 µM	< 1 µM
Cc1ccc(-c2cnc3[nH]cc(C(=O)c4cccc(NS(=O)(=O)N5CCCC5)c4F)c3c2)cn1 [Compound P-0045, N-[2-fluoro-3-[5-(6-methyl-3-pyridyl)-1H-pyrrolo[2,3-b]pyridine-3-carbonyl]phenyl]pyrrolidine-1-sulfonamide]	< 0.1 µM	> 10 µM	< 1 µM
CC(C)c1ncc(-c2cnc3[nH]cc(C(=O)c4cccc(NS(=O)(=O)N5CCCC5)c4F)c3c2)cn1 [Compound P-0047, N-[2-fluoro-3-[5-(2-isopropylpyrimidin-5-yl)-1H-pyrrolo[2,3-b]pyridine-3-carbonyl]phenyl]pyrrolidine-1-sulfonamide]	< 0.1 µM	> 10 µM	< 1 µM
O=C(c1cccc(NS(=O)(=O)N2CCCC2)c1F)c1c[nH]c2ncc(-c3cnc(C4CC4)nc3)cc12 [Compound P-0048, N-[3-[5-(2-cyclopropylpyrimidin-5-yl)-1H-pyrrolo[2,3-b]pyridine-3-carbonyl]-2-fluoro-phenyl]pyrrolidine-1-sulfonamide]	< 0.1 µM	> 10 µM	< 1 µM
COc1cc(-c2cnc3[nH]cc(C(=O)c4cccc(NS(=O)(=O)N5CCCC5)c4F)c3c2)ccc1C#N [Compound P-0049, N-[3-[5-(4-cyano-3-methoxy-phenyl)-1H-pyrrolo[2,3-b]pyridine-3-carbonyl]-2-fluoro-phenyl]pyrrolidine-1-sulfonamide]	< 0.1 µM	> 4 µM	< 1 µM
N#CC1(c2ccc(-c3cnc4[nH]cc(C(=O)c5cccc(NS(=O)(=O)N6CCCC6)c5F)c4c3)cc2)CC1 [Compound P-0050, N-[3-[5-[4-(1-cyanocyclopropyl)phenyl]-1H-pyrrolo[2,3-b]pyridine-3-carbonyl]-2-fluoro-phenyl]pyrrolidine-1-sulfonamide]	< 0.1 µM	> 10 µM	< 1 µM
CC(C)c1ncc(-c2cnc3[nH]cc(C(=O)c4cccc(NS(=O)(=O)N(C)C)c4F)c3c2)cn1 [Compound P-0051, 3-[3-(dimethylsulfamoylamino)-2-fluoro-benzoyl]-5-(2-isopropylpyrimidin-5-yl)-1H-pyrrolo[2,3-b]pyridine]	< 0.1 µM	> 10 µM	< 1 µM
CN(C)S(=O)(=O)Nc1cccc(C(=O)c2c[nH]c3ncc(-c4cnc(C5CC5)nc4)cc23)c1F [Compound P-0052, 5-(2-cyclopropylpyrimidin-5-yl)-3-[3-(dimethylsulfamoylamino)-2-fluoro-benzoyl]-1H-pyrrolo[2,3-b]pyridine]	< 0.1 µM	> 10 µM	< 1 µM
CN(C)S(=O)(=O)Nc1cccc(C(=O)c2c[nH]c3ncc(-c4ccc(C(F)(F)F)nc4)cc23)c1F [Compound P-0053, 3-[3-(dimethylsulfamoylamino)-2-fluoro-benzoyl]-5-[6-(trifluoromethyl)-3-pyridyl]-1H-pyrrolo[2,3-b]pyridine]	< 0.1 µM	> 10 µM	< 1 µM
COc1cc(-c2cnc3[nH]cc(C(=O)c4cccc(NS(=O)(=O)N(C)C)c4F)c3c2)ccc1C#N [Compound P-0054, 5-(4-cyano-3-methoxy-phenyl)-3-[3-(dimethylsulfamoylamino)-2-fluoro-benzoyl]-1H-pyrrolo[2,3-b]pyridine]	< 0.1 µM	> 1 µM	> 1 µM
CN(C)S(=O)(=O)Nc1cccc(C(=O)c2c[nH]c3ncc(-c4ccc(C5(C#N)CC5)cc4)cc23)c1F [Compound P-0055, 5-[4-(1-cyanocyclopropyl)phenyl]-3-[3-(dimethylsulfamoylamino)-2-fluoro-benzoyl]-1H-pyrrolo[2,3-b]pyridine]	< 0.1 µM	> 10 µM	< 1 µM
CCN(C)S(=O)(=O)Nc1cccc(C(=O)c2c[nH]c3ncc(-c4cnc(C)nc4)cc23)c1F [Compound P-0056, 3-[3-[[ethyl(methyl)sulfamoyl]amino]-2-fluoro-benzoyl]-5-(2-methylpyrimidin-5-yl)-1H-pyrrolo[2,3-b]pyridine]	< 0.1 µM	> 10 µM	< 1 µM
CCN(C)S(=O)(=O)Nc1cccc(C(=O)c2c[nH]c3ncc(-c4cnc(C(C)C)nc4)cc23)c1F [Compound P-0057, 3-[3-[[ethyl(methyl)sulfamoyl]amino]-2-fluoro-benzoyl]-5-(2-isopropylpyrimidin-5-yl)-1H-pyrrolo[2,3-b]pyridine]	< 0.1 µM	> 10 µM	< 1 µM
COc1cc(-c2cnc3[nH]cc(C(=O)c4c(F)ccc(NS(=O)(=O)N5CCCC5)c4F)c3c2)ccn1 [Compound P-0287, N-[2,4-difluoro-3-[5-(2-methoxy-4-pyridyl)-1H-pyrrolo[2,3-b]pyridine-3-carbonyl]phenyl]pyrrolidine-1-sulfonamide]		> 4 µM	< 1 µM
